Measured values taken from ChEMBL document CHEMBL3286136, “Discovery of camphor-derived pyrazolones as 11β-hydroxysteroid dehydrogenase type 1 inhibitors” (Bioorg Med Chem Lett, 2014).
In brackets after ≈: the same amount, converted by molar mass.

Assays:
[1] = Half life in iv dosed rat; format: ADME, organism-based; conditions: in vivo
[2] = molecular target: 11-beta-hydroxysteroid dehydrogenase 1 (Rattus norvegicus, UniProt P16232); assay: Inhibition of rat 11betaHSD1 assessed as reduction of cortisone to cortisol by ELISA
[3] = Oral bioavailability in rat; format: ADME, organism-based; conditions: in vivo
[4] = Tmax in po dosed rat; format: ADME, organism-based; conditions: in vivo
Cytochrome P450 3A4 = Cytochrome P450 3A4 (Homo sapiens, UniProt P08684); assay: Inhibition of CYP3A4 (unknown origin); format: ADME
[5] = Effective permeability of the compound at pH 6.5 by PAMPA; format: physicochemical; conditions: read-out: Peff
Mus musculus [6] = assay: Reduction in plasma cortisol level in db/db mouse at 150 mg/kg, po after 30 mins […] measured after 5.5 hrs relative to control; format: functional
[7] = Clearance in human liver microsomes at 1 uM; format: ADME; conditions: read-out: CLH
[8] = Kinetic aqueous solubility of the compound at pH 6.5; format: physicochemical; conditions: read-out: Kinetic_solubility
Mus musculus [9] = assay: Toxicity in db/db mouse assessed as sedative effect at 150 mg/kg, po after 13 days; format: organism-based; parameters: dose 150 mg/kg, route oral; conditions: in vivo, 312 h
[10] = Clearance in iv dosed rat; format: ADME, organism-based; conditions: in vivo
hERG (KCNH2) = hERG (KCNH2) (Homo sapiens, UniProt Q12809); assay: Inhibition of human ERG
[11] = Cmax in rat at 50 mg/kg, po; format: ADME, organism-based; parameters: dose 50 mg/kg, route oral; conditions: in vivo
[12] = Volume of distribution at steady state in iv dosed rat; format: ADME, organism-based; conditions: in vivo, read-out: Vdss
[13] = Cmax in rat at 20 mg/kg, po; format: ADME, organism-based; parameters: dose 20 mg/kg, route oral; conditions: in vivo
[14] = molecular target: 11-beta-hydroxysteroid dehydrogenase 1 (Homo sapiens, UniProt P28845); assay: Inhibition of full-length human 11betaHSD1 expressed in HEK293 cells assessed as cortisol level by competitive ELISA; format: cell-based
Sequence of 11-beta-hydroxysteroid dehydrogenase 1 (Homo sapiens, UniProt P28845) (P28845 whole entry): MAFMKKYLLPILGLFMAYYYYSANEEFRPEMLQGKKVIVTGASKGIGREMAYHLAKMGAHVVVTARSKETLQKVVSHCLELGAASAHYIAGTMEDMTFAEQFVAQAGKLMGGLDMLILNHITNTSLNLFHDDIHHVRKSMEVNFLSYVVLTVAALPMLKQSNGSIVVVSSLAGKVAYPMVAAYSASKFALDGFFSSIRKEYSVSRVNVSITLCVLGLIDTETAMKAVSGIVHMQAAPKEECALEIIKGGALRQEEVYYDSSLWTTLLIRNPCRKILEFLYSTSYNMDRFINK

Sequence of 11-beta-hydroxysteroid dehydrogenase 1 (Rattus norvegicus, UniProt P16232) (P16232 whole entry): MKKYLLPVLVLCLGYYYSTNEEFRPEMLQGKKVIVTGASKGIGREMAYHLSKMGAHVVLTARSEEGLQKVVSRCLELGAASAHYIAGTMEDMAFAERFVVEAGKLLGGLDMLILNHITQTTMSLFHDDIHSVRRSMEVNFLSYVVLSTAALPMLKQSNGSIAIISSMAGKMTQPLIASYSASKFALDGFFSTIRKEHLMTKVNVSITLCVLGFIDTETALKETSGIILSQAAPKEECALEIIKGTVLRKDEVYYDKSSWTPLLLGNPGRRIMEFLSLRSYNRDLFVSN
Sequence of hERG (KCNH2) (Q12809 whole entry): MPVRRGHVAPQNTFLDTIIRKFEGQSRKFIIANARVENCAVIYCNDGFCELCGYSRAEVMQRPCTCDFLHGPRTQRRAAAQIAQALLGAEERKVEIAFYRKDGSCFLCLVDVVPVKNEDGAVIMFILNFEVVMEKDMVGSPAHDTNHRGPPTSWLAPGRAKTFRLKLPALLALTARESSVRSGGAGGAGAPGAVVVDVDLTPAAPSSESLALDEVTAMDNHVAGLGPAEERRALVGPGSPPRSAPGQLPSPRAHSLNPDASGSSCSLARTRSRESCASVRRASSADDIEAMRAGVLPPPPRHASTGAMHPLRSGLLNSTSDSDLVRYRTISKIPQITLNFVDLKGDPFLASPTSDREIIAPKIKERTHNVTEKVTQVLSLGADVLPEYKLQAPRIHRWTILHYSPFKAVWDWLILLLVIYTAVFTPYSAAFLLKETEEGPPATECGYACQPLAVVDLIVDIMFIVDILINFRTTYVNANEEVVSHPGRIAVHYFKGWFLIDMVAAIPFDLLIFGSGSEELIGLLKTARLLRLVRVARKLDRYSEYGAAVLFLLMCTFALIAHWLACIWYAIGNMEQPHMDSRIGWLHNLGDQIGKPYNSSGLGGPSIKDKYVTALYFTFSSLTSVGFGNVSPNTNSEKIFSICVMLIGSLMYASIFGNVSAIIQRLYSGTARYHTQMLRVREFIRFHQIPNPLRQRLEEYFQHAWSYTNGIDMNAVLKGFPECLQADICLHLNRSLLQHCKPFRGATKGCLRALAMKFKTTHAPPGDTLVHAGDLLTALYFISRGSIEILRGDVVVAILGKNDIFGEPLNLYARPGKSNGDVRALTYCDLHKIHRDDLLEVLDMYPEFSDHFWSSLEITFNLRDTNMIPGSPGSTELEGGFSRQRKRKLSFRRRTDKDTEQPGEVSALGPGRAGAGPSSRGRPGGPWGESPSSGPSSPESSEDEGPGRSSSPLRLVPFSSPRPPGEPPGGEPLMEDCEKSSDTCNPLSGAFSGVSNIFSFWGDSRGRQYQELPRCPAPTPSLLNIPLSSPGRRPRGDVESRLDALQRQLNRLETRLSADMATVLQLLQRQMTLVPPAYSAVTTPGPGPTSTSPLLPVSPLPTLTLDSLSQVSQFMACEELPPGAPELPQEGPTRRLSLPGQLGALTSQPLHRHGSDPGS
Sequence of Cytochrome P450 3A4 (P08684 whole entry): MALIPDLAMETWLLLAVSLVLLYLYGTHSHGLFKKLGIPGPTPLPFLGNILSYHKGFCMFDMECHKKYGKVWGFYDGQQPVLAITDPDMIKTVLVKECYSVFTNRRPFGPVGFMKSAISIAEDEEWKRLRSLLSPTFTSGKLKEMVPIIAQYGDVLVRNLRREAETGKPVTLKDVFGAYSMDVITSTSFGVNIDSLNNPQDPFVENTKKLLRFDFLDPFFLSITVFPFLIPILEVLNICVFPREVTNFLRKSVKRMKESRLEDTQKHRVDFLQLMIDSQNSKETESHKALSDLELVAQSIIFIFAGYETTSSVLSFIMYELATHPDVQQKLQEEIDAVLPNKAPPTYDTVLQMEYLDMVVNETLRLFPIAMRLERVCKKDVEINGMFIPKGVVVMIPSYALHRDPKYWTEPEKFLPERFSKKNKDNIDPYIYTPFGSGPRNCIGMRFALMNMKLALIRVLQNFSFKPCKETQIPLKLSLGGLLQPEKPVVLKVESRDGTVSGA

Structure (SMILES)	half-life [1] [h]	IC50 [2] [nM]	bioavailability [3] [%]	Tmax [4] [h]	Papp [5] [×10⁻⁶ cm/s]	microsomal CLint at 1 µM [7] [µL/min/mg]	solubility kinetic [8] [µg/mL]	clearance [10] [mL/min/kg]	Vd [12] [L/kg]	further results
Cn1c2c(c(=O)n1-c1cc(Cl)ccc1Cl)[C@H]1CC[C@]2(C)C1(C)C	5.4	5	71	0.5	6.7	170	50 (≈ 142 µM)	40.2	4.6	IC50 (Cytochrome P450 3A4): > 25000 nM; inhibition (INH) (Mus musculus [6]): 93%; Activity (Mus musculus [9]): Non-toxic; IC20 (hERG (KCNH2)): 51000 nM; Cmax [11]: 280 ng/mL
Cn1c2c(c(=O)n1-c1cccc(I)c1)[C@H]1CC[C@]2(C)C1(C)C	–	4	–	–	–	–	–	–	–	–
Cn1c2c(c(=O)n1-c1ccccc1Cl)[C@H]1CC[C@]2(C)C1(C)C	4.9	39	29	1	9.9	197	> 625	29.3	2.7	IC50 (Cytochrome P450 3A4): > 50000 nM; IC20 (hERG (KCNH2)): > 30000 nM; Cmax [11]: 2840 ng/mL
Cn1c2c(c(=O)n1-c1ccccn1)[C@H]1CC[C@]2(C)C1(C)C	–	> 5000	–	–	–	–	–	–	–	–
Cn1c2c(c(=O)n1-c1ccccc1)[C@@H]1CC[C@@]2(C)C1(C)C	–	116	–	–	–	–	–	–	–	–
Cn1c2c(c(=O)n1-c1ccccc1)[C@H]1CC[C@]2(C)C1(C)C	1.2	138	9	0.5	9.7	3.6	169 (≈ 598 µM)	25.7	1.4	Cmax [13]: 335 ng/mL; IC50 (Cytochrome P450 3A4): > 50000 nM
CC1(C)[C@@H]2CC[C@@]1(C)c1c2c(=O)n(-c2ccccc2F)n1Cc1ccccc1	–	12	–	–	–	–	–	–	–	–
Cn1c2c(c(=O)n1-c1c(Cl)cccc1Cl)[C@H]1CC[C@]2(C)C1(C)C	–	> 11000	–	–	–	–	–	–	–	IC50 [14]: > 22000 nM
COc1cccc(-n2c(=O)c3c(n2C)[C@]2(C)CC[C@H]3C2(C)C)c1	–	41	–	–	–	–	–	–	–	–
CC(C)n1c2c(c(=O)n1-c1ccccc1F)[C@H]1CC[C@]2(C)C1(C)C	–	22	–	–	–	–	–	–	–	–
CC1(C)[C@@H]2CC[C@@]1(C)c1c2c(=O)n(-c2ccccc2)n1Cc1ccccc1	0.9	16	29	3.2	8.8	645	171 (≈ 477 µM)	57.5	2.3	Cmax [11]: 648 ng/mL
CCCn1c2c(c(=O)n1-c1ccccc1F)[C@H]1CC[C@]2(C)C1(C)C	–	110	–	–	–	–	–	–	–	–
Cn1c2c(c(=O)n1Cc1ccccc1C(F)(F)F)[C@H]1CC[C@]2(C)C1(C)C	3	10	5	0.8	8.2	604	246 (≈ 675 µM)	34.8	2	IC50 (Cytochrome P450 3A4): 4800 nM; Cmax [11]: 294 ng/mL
Cc1ccccc1-c1cccc(Cn2c(=O)c3c(n2C)[C@]2(C)CC[C@H]3C2(C)C)c1	–	21	–	–	–	–	–	–	–	–
COc1c2c(nn1-c1ccc(C)cc1)[C@]1(C)CC[C@H]2C1(C)C	–	> 11000	–	–	–	–	–	–	–	IC50 [14]: > 22000 nM
CC1(C)[C@@H]2CC[C@@]1(C)c1c2c(=O)n(-c2ccc(F)cc2F)n1Cc1ccccc1	0.8	13	35	2.3	11.2	582	82 (≈ 208 µM)	29	1	IC50 (Cytochrome P450 3A4): 6100 nM; inhibition (INH) (Mus musculus [6]): 93%; IC20 (hERG (KCNH2)): > 30000 nM; Cmax [11]: 2280 ng/mL
C=CCn1c2c(c(=O)n1-c1ccccc1F)[C@H]1CC[C@]2(C)C1(C)C	–	35	–	–	–	–	–	–	–	–
CC1(C)[C@@H]2CC[C@@]1(C)c1c2c(=O)n(-c2ccc(F)cc2F)n1CCc1ccccc1	–	18	–	–	–	–	–	–	–	–
Cn1c2c(c(=O)n1-c1ccccc1C(F)(F)F)[C@H]1CC[C@]2(C)C1(C)C	1	10	109	0.7	10.9	68	> 376	31.8	1.2	Cmax [13]: 2150 ng/mL; IC50 (Cytochrome P450 3A4): 22600 nM; inhibition (INH) (Mus musculus [6]): 93%; Activity (Mus musculus [9]): Toxic; IC20 (hERG (KCNH2)): > 30000 nM
Cn1c2c(c(=O)n1Cc1ccccc1)[C@H]1CC[C@]2(C)C1(C)C	–	77	–	–	–	–	–	–	–	–
CCn1c2c(c(=O)n1-c1ccccc1)[C@H]1CC[C@]2(C)C1(C)C	–	18	–	–	–	–	–	–	–	–
